Results reported in US20130303539A1, “COMPOUNDS WITH TRPV4 ACTIVITY, COMPOSITIONS AND ASSOCIATED METHODS THEREOF” (priority 2012, published 2013).

Key:
retinal ganglion cells = test: RGC density in retinal wholemounts of the MB mouse model; assay type: in vivo
Method: FIG. 2 confirms that the mouse model for glaucoma causes RGC degeneration. Specifically, microbeads (MBs) were injected into the anterior chamber of a mouse eye. The MBs increase intraocular IOP above 15 mm Hg by blocking outflow of the aqueous humor within the anterior chamber of the eye. MBs were reinjected as needed to maintain a high IOP, typically one injection every two weeks. Contralateral eyes were injected intraocularly with the vehicle PBS (phosphate buffered saline) as controls. […] IOP levels were measured at least twice weekly before and after intraocular injections. After injections, mice recovered for 48 hours before IOP measurements resumed. Following 4 or 8 weeks of IOP elevation, mice were intracardially perfused with 4% paraformaldehyde in 1×PBS to fix the retinas. Retinas were then removed and processed for immunohistochemistry (IHC). Whole retinas were rinsed with 1×PBS three times at room temperature then incubated in blocking buffer (1×PBS+1% BSA). […] The density of RGCs was imaged with a confocal microscope (Zeiss LSM 510) and quantified by counting NeuN-, CFP- and/or Tuj-1—labeled somata in the RGC layer of the retinal wholemount preparation. […]
RGD density was quantified in retinas isolated from TuJ-1^+ mice and transgenic Thy1-CRP^+ transgenic mice that had been injected with either MBs or vehicle (PBS) then dosed with either compound 1 or vehicle (PBS). […] TuJ-1 was quantified by immunohistochemistry using a Tuj-1-specific antibody conjugated to a fluorescent Alexa 488 or Alexa 594 secondary antibody. […] For fluorescence immunocytochemistry, retinal wholemounts were washed in PBS, then placed for 30 min. to 1 hour in blocking solution (10 ml PBS, 30 μL Triton-X 100, 100 mg bovine serum albumin, 100 μL 10% w/v Na azide solution) in OCT (Ted Pella, Redding, Pa.). […]

MB model of glaucoma = test: IOP time course after a single eye drop in the MB model of glaucoma; assay type: in vivo, mouse; conditions: single dose eye drop
Method: Specifically, microbeads (MBs) were injected into the anterior chamber of a mouse eye as described in Example 2 with PBS-injected eyes used as controls. Compound 1 (10 mg/kg body weight) (or PBS vehicle) was injected intraperitoneally (IP). […] IOP was measured in mice between 10:00 AM and 1:00 PM with the TonoLab rebound tonometer (Colonial Medical Supply, Franconia, NH/Tyolat, Helsinki, Finland). Mice were sedated with IP injection of Avertin with final amount calculated by weight (e.g., 0.5 ml for 21-24 g animals). Animals were placed on a jack stand platform and the tonolab was clamped on a ring stand and centered onto the mid-cornea. During measurements animal were neither restrained nor touched. Each eye was measured twenty consecutive times, the highest and lowest values were discarded and the values were averaged.
FIG. 9 illustrates the short-term effects of a single dose of Compound 1 (eye drop) in the MB model of glaucoma. IOP was measured as described in Example 3 at the indicated time points after receiving a drop of Compound 1. Compound 1 reduced IOP beginning at 1 hour after dosing and continued through 6 hours after dosing.
FIG. 10 illustrates a time course of Compounds 1, 2, 5 and Compound 2-HCl as well as a positive control compound, timolol, with regard to inhibition of IOP. The experiment was conducted as described in Example 9. Each of the TRPV4 antagonists reduced IOP with a similar time course. Specifically, Compounds 1, 2, 5 and Compound 2-HCl reduced IOP for at least 6 hours after dosing.
FIG. 11 illustrates a time course of Compound 2-HCl activity. The experiment was conducted as described in Example 9. […] 2
FIG. 12 illustrates a comparison of the time course of Compound 2-HCl and Compound 5. The experiment was conducted as described in Example 9.

retinal ganglion cell = test: Pressure-induced inward currents, High-Speed Pressure Clamp, voltage-clamped retinal ganglion cell; assay type: cell-based; conditions: pressure steps from 10 mm Hg to 50 mm Hg
Method: The cell was voltage clamped and stimulated with the High-Speed Pressure Clamp method, as detailed by Besch et al (Pflugers Arch. 2002 October; 445(1):161-6). This method consists of a specialized headstage coupled to a piezo element in the pressure/vacuum control valve. By balancing the access of pressure to the patch pipette, the device generates rapid and reproducible pressure steps of >±200 mm Hg. Channel activity is recorded in the cell-attached mode or the membrane is “zapped” into the outside-out configuration.

SMILES: Cc1c(C(=O)Nc2cccc(C(F)(F)F)c2)cc(-c2ccccc2)n1CCCN1CCOCC1 [Compound 1, N-(3-(trifluoromethyl)phenyl)-2-methyl-1-(3-morpholinopropyl)-5-phenyl-1H-pyrrole-3-carboxamide]
- TuJ-1+ cells in the alpha, beta and omega regions (retinal ganglion cells; MB- or PBS-injected eyes, IP dosing): rescues RGCs across all regions of the retina
- CFP+ cells in the alpha, beta and omega regions (retinal ganglion cells; Thy1-CFP transgenic mice, MB- or PBS-injected eyes, IP dosing): rescues RGCs across all regions of the retina
- density of RGCs (TuJ-1+ cells and Thy1:CFP+ cells) (retinal ganglion cells; after 8 weeks of increased IOP, MB-injected mice): RGC loss was rescued
- onset of IOP reduction after dosing (MB model of glaucoma): 1 h
- pressure-induced inward currents (retinal ganglion cell): reversibly antagonized
